According to US7138361B2, “Herbicidal heterocycles” (E. I. du Pont de Nemours and Company, priority 2000, dated 2006):

Legend:
Assay type in all cases: in vivo
[1] = test system: pigweed (Amaranthus retroflexus); assay: Test C preemergence; conditions: for Plant response rating (0 to 100), Pigweed: visual evaluation after 12 to 14 days
Summary of the method: (§1)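 Herbicidal effect is a visual 0–100 score (100 = complete control) assigned versus untreated plants, 12 to 14 days after spraying in the greenhouse. Test compounds were applied in a non-phytotoxic, surfactant-containing solvent.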

kochia (Kochia scoparia) = assay: Test C preemergence; conditions: for Plant response rating (0 to 100), Kochia: visual evaluation after 12 to 14 days
Summary of the method: as §1

Sunflower [2] = assay: Test C preemergence
[3] = test system: giant foxtail (Setaria faberii); assay: Test C preemergence; conditions: for Plant response rating (0 to 100), Foxtail, Giant: visual evaluation after 12 to 14 days
Summary of the method: as §1

Nightshade = assay: Test C preemergence
soybean (Glycine max) = assay: Test C preemergence; conditions: for Plant response rating (0 to 100), Soybean: visual evaluation after 12 to 14 days
Summary of the method: as §1

[4] = test system: johnsongrass (Sorghum halepense); assay: Test C preemergence; conditions: for Plant response rating (0 to 100), Johnsongrass: visual evaluation after 12 to 14 days
Summary of the method: as §1

[5] = test system: Surinam grass (Brachiaria decumbens); assay: Test C preemergence; conditions: for Plant response rating (0 to 100), Surinam grass: visual evaluation after 12 to 14 days
Summary of the method: as §1

[6] = test system: woolly cupgrass (Eriochloa villosa); assay: Test C preemergence; conditions: for Plant response rating (0 to 100), Cupgrass, Woolly: visual evaluation after 12 to 14 days
Summary of the method: as §1

[7] = test system: common ragweed (Ambrosia elatior); assay: Test C preemergence; conditions: for Plant response rating (0 to 100), Ragweed, Common: visual evaluation after 12 to 14 days
Summary of the method: as §1

[8] = test system: lambsquarters (Chenopodium album); assay: Test C preemergence; conditions: for Plant response rating (0 to 100), Lambsquarters: visual evaluation after 12 to 14 days
Summary of the method: as §1

[9] = test system: bermudagrass (Cynodon dactylon); assay: Test C preemergence; conditions: for Plant response rating (0 to 100 where 0 is no effect and 100 is complete control), Bermudagrass: visual evaluation after 12 to 14 days
Summary of the method: as §1

[10] = test system: cocklebur (Xanthium strumarium); assay: Test C preemergence; conditions: for Plant response rating (0 to 100), Cocklebur: visual evaluation after 12 to 14 days
Summary of the method: as §1

corn (Zea mays) = assay: Test C preemergence; conditions: for Plant response rating (0 to 100), Corn: visual evaluation after 12 to 14 days
Summary of the method: as §1

[11] = test system: velvetleaf (Abutilon theophrasti); assay: Test C preemergence; conditions: for Plant response rating (0 to 100), Velvetleaf: visual evaluation after 12 to 14 days
Summary of the method: as §1

Sunflower [12] = assay: Test C preemergence; conditions: visual evaluation after 12 to 14 days
[13] = test system: crabgrass (Digitaria sanguinalis); assay: Test B postemergence; conditions: 13 to 15 days
Summary of the method: (§2)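 Preemergence: seeds planted and treated with test chemicals in non-phytotoxic solvent with surfactant; postemergence on plants 2–18 cm (1- to 4-leaf stage). Kept in greenhouse 13–15 days, then visually rated against controls on a 0 (no effect) to 100 (complete control) scale.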

wild oat (Avena fatua) = assay: Test B postemergence; conditions: 13 to 15 days
Summary of the method: as §2

[14] = test system: lambsquarters (Chenopodium album); assay: Test B postemergence; conditions: 13 to 15 days
Summary of the method: as §2

[15] = test system: cocklebur (Xanthium strumarium); assay: Test B postemergence; conditions: 13 to 15 days
Summary of the method: as §2

[16] = Rate 125 g/ha, scale 0 to 100, 0 no effect, 100 complete control
[17] = preemergence, Rate 62 g/ha, scale 0 to 100
[18] = preemergence, Rate 250 g/ha, scale 0 to 100, 0 no effect, 100 complete control
[19] = Rate 125 g/ha, scale 0 (no effect) to 100 (complete control)
[20] = Rate 500 g/ha, scale 0 to 100, 0 is no effect, 100 is complete control
[21] = Preemergence, Rate 500 g/ha, scale 0 to 100
[22] = Rate 62 g/ha, scale 0 to 100, 0 no effect, 100 complete control
[23] = preemergence, Rate 125 g/ha, scale 0 to 100, 0 no effect, 100 complete control

Structure (SMILES): CCC(CC)c1ccn(C2CCN(c3cccc(OC(C)C)c3)C2=O)n1 (stereo not drawn) [Compound 84]
- Plant response rating, Pigweed [1, 16]: 0
- Plant response rating, Pigweed [1, 17]: 90
- Plant response rating (0 to 100), Pigweed ([1]; preemergence, Rate 500 g/ha): 90
- Plant response rating, Pigweed [1, 18]: 100
- Plant response rating, Kochia (kochia (Kochia scoparia); [16]): 100
- Plant response rating, Kochia (kochia (Kochia scoparia); [17]): 80
- Plant response rating (0 to 100), Kochia (kochia (Kochia scoparia); preemergence, Rate 250 g/ha): 100
- Plant response rating (0 to 100), Kochia (kochia (Kochia scoparia); preemergence, Rate 500 g/ha): 100
- Plant response rating, Sunflower (Sunflower [2]; [16]): 10
- Plant response rating, Foxtail, Giant [3, 16]: 80
- Plant response rating, Foxtail, Giant [3, 17]: 10
- Plant response rating (0 to 100), Foxtail, Giant ([3]; preemergence, Rate 250 g/ha): 100
- Plant response rating (0 to 100), Foxtail, Giant ([3]; preemergence, Rate 500 g/ha): 100
- Plant response rating, Nightshade (Nightshade; Rate 62 g/ha, scale 0 to 100): 30
- Plant response rating, Nightshade (Nightshade; Rate 125 g/ha; scale 0 to 100, 0 no effect, 100 complete control): 50
- Plant response rating, Nightshade (Nightshade; Rate 250 g/ha, scale 0 to 100, 0 no effect, 100 complete control): 100
- Plant response rating, Soybean (soybean (Glycine max); [16]): 0
- Plant response rating, Soybean (soybean (Glycine max); [17]): 0
- Plant response rating (0 to 100), Soybean (soybean (Glycine max); preemergence, Rate 500 g/ha): 0
- Plant response rating, Soybean (soybean (Glycine max); [18]): 0
- Plant response rating, Johnsongrass [4, 16]: 0
- Plant response rating, Johnsongrass [4, 17]: 0
- Plant response rating (0 to 100), Johnsongrass ([4]; preemergence, Rate 250 g/ha): 0
- Plant response rating (0 to 100), Johnsongrass ([4]; preemergence, Rate 500 g/ha): 0
- Plant response rating, Surinam grass [5, 16]: 0
- Plant response rating, Surinam grass [5, 17]: 0
- Plant response rating (0 to 100), Surinam grass ([5]; preemergence, Rate 250 g/ha): 30
- Plant response rating (0 to 100), Surinam grass ([5]; preemergence, Rate 500 g/ha): 80
- Plant response rating, Cupgrass, Woolly [6, 16]: 90
- Plant response rating, Cupgrass, Woolly [6, 17]: 60
- Plant response rating (0 to 100), Cupgrass, Woolly ([6]; preemergence, Rate 250 g/ha): 90
- Plant response rating (0 to 100), Cupgrass, Woolly ([6]; preemergence, Rate 500 g/ha): 100
- Plant response rating, Ragweed, Common [7, 16]: 0
- Plant response rating, Ragweed, Common [7, 17]: 0
- Plant response rating (0 to 100), Ragweed, Common ([7]; preemergence, Rate 500 g/ha): 0
- Plant response rating, Ragweed, Common [7, 18]: 0
- Plant response rating, Lambsquarters [8, 16]: 100
- Plant response rating, Lambsquarters [8, 17]: 100
- Plant response rating (0 to 100), Lambsquarters ([8]; preemergence, Rate 500 g/ha): 100
- Plant response rating, Lambsquarters [8, 18]: 100
- Plant response rating, Bermudagrass [9, 16]: 100
- Plant response rating, Bermudagrass [9, 17]: 100
- Plant response rating (0 to 100 where 0 is no effect and 100 is complete control), Bermudagrass ([9]; preemergence, Rate 250 g/ha): 100
- Plant response rating (0 to 100 where 0 is no effect and 100 is complete control), Bermudagrass ([9]; preemergence, Rate 500 g/ha): 100
- Plant response rating, Cocklebur [10, 16]: 0
- Plant response rating, Cocklebur [10, 17]: 0
- Plant response rating (0 to 100), Cocklebur ([10]; preemergence, Rate 250 g/ha): 0
- Plant response rating (0 to 100), Cocklebur ([10]; preemergence, Rate 500 g/ha): 0
- Plant response rating, Corn (corn (Zea mays); [16]): 0
- Plant response rating, Corn (corn (Zea mays); [17]): 0
- Plant response rating (0 to 100), Corn (corn (Zea mays); preemergence, Rate 250 g/ha): 0
- Plant response rating (0 to 100), Corn (corn (Zea mays); preemergence, Rate 500 g/ha): 0
- Plant response rating, Velvetleaf [11, 16]: 0
- Plant response rating, Velvetleaf [11, 17]: 0
- Plant response rating (0 to 100), Velvetleaf ([11]; preemergence, Rate 500 g/ha): 0
- Plant response rating, Velvetleaf [11, 18]: 0
- Plant response rating (0 to 100), Sunflower (Sunflower [12]; Rate 500 g/ha): 30
- Plant response rating, Crabgrass [13, 19]: 0
- Plant response rating, Crabgrass [13, 20]: 10
- Plant response rating, Wild Oat (wild oat (Avena fatua); [19]): 0
- Plant response rating, Wild Oat (wild oat (Avena fatua); [20]): 10
- Plant response rating, Lambsquarters [14, 19]: 50
- Plant response rating, Lambsquarters [14, 20]: 60
- Plant response rating, Cocklebur [15, 19]: 10
- Plant response rating, Cocklebur [15, 20]: 20

Structure (SMILES): CCC(C)c1ccn(C2SCN(c3cccc(OC(F)(F)F)c3)C2=O)n1 (stereo not drawn) [Compound 40]
- Plant response rating, Pigweed [1, 21]: 100
- Plant response rating, Pigweed [1, 22]: 0
- Plant response rating (0 to 100), Pigweed ([1]; preemergence, Rate 250 g/ha): 0
- Plant response rating, Pigweed [1, 23]: 100
- Plant response rating, Kochia (kochia (Kochia scoparia); [21]): 100
- Plant response rating, Kochia (kochia (Kochia scoparia); [22]): 60
- Plant response rating (0 to 100), Kochia (kochia (Kochia scoparia); preemergence, Rate 250 g/ha): 100
- Plant response rating, Kochia (kochia (Kochia scoparia); [23]): 90
- Plant response rating, Sunflower (Sunflower [2]; [22]): 0
- Plant response rating, Sunflower (Sunflower [2]; Rate 500 g/ha, scale 0 to 100): 40
- Plant response rating, Foxtail, Giant [3, 21]: 100
- Plant response rating, Foxtail, Giant [3, 22]: 90
- Plant response rating (0 to 100), Foxtail, Giant ([3]; preemergence, Rate 250 g/ha): 100
- Plant response rating, Foxtail, Giant [3, 23]: 0
- Plant response rating, Nightshade (Nightshade; Rate 62 g/ha; scale 0 to 100, 0 no effect, 100 complete control): 0
- Plant response rating, Nightshade (Nightshade; [16]): 0
- Plant response rating, Nightshade (Nightshade; Rate 500 g/ha, scale 0 to 100): 70
- Plant response rating, Soybean (soybean (Glycine max); [21]): 40
- Plant response rating (0 to 100), Soybean (soybean (Glycine max); preemergence, Rate 250 g/ha): 40
- Plant response rating, Soybean (soybean (Glycine max); [23]): 20
- Plant response rating, Johnsongrass [4, 21]: 100
- Plant response rating, Johnsongrass [4, 22]: 50
- Plant response rating (0 to 100), Johnsongrass ([4]; preemergence, Rate 250 g/ha): 100
- Plant response rating, Johnsongrass [4, 23]: 100
- Plant response rating, Surinam grass [5, 21]: 100
- Plant response rating, Surinam grass [5, 22]: 0
- Plant response rating (0 to 100), Surinam grass ([5]; preemergence, Rate 250 g/ha): 90
- Plant response rating, Surinam grass [5, 23]: 80
- Plant response rating, Cupgrass, Woolly [6, 21]: 100
- Plant response rating, Cupgrass, Woolly [6, 22]: 60
- Plant response rating (0 to 100), Cupgrass, Woolly ([6]; preemergence, Rate 250 g/ha): 90
- Plant response rating, Cupgrass, Woolly [6, 23]: 90
- Plant response rating, Ragweed, Common [7, 21]: 70
- Plant response rating, Ragweed, Common [7, 22]: 0
- Plant response rating (0 to 100), Ragweed, Common ([7]; preemergence, Rate 250 g/ha): 30
- Plant response rating, Ragweed, Common [7, 23]: 0
- Plant response rating, Lambsquarters [8, 21]: 100
- Plant response rating, Lambsquarters [8, 22]: 100
- Plant response rating (0 to 100), Lambsquarters ([8]; preemergence, Rate 250 g/ha): 100
- Plant response rating, Lambsquarters [8, 23]: 100
- Plant response rating, Bermudagrass [9, 21]: 100
- Plant response rating, Bermudagrass [9, 22]: 80
- Plant response rating (0 to 100 where 0 is no effect and 100 is complete control), Bermudagrass ([9]; preemergence, Rate 250 g/ha): 100
- Plant response rating, Bermudagrass [9, 23]: 100
- Plant response rating, Cocklebur [10, 21]: 60
- Plant response rating, Cocklebur [10, 22]: 20
- Plant response rating, Cocklebur [10, 23]: 20
- Plant response rating, Corn (corn (Zea mays); [21]): 90
- Plant response rating, Corn (corn (Zea mays); [22]): 0
- Plant response rating (0 to 100), Corn (corn (Zea mays); preemergence, Rate 250 g/ha): 50
- Plant response rating, Corn (corn (Zea mays); [23]): 20
- Plant response rating, Velvetleaf [11, 21]: 50
- Plant response rating, Velvetleaf [11, 22]: 0
- Plant response rating (0 to 100), Velvetleaf ([11]; preemergence, Rate 250 g/ha): 30
- Plant response rating, Velvetleaf [11, 23]: 0
- Plant response rating (0 to 100), Sunflower (Sunflower [12]; Rate 250 g/ha): 30
- Plant response rating, Crabgrass [13, 19]: 60
- Plant response rating, Crabgrass [13, 20]: 90
- Plant response rating, Wild Oat (wild oat (Avena fatua); [19]): 0
- Plant response rating, Wild Oat (wild oat (Avena fatua); [20]): 0
- Plant response rating, Lambsquarters [14, 19]: 70
- Plant response rating, Lambsquarters [14, 20]: 90
- Plant response rating, Cocklebur [15, 19]: 30
- Plant response rating, Cocklebur [15, 20]: 50
